Experimental data reported in paper PMC5366925, “Novel 1, 4-dihydropyridines for L-type calcium channel as antagonists for cadmium toxicity” (Scientific Reports, 2017).
Converted amounts (≈) assume the structure as drawn.

Key:
[1] = tested on: A7r5 cells (containing L-type Ca2+ channels); test: Intracellular Ca2+ measurement (Fluo-4 NW), CaCl2/KCl-induced increase; format: cell-based, rat; conditions: for IC50: Rattus norvegicus, A7r5 cells, 1.5 mM CaCl2 and 50 mM KCl, mean ± SD, unit printed only in abstract, not in Table 2, read-out: Calcium overload-preventing activity (IC50), A7r5; for fold higher activity in A7r5 cells than in SH-SY5Y cells: A7r5 vs SH-SY5Y IC50
Method: (§1) The A7r5 (rat aorta smooth muscle cells) and SH-SY5Y (human neuroblastoma cell line) were obtained from the National Centre for Cell Science, Pune, India. The cells were grown at 37.5 °C in a humidified atmosphere with 5% CO2/95% air in Dulbecco’s modified Eagle medium (DMEM), restraining 2 mM of glutamine and supplemented with 10% fetal bovine serum. Once a week the cells were passaged using 0.25% trypsin, 0.53 mM EDTA (Ethylene diamine tetra acetic acid) solution and grown in […] plastic culture flasks until confluence.
(§2) In the experiment, SH-SY5Y cells were plated in 96-well plates at a density of 30,000 cells per well and incubated for 24 h. A7r5 cells were seeded into 96-well plates at a density of 10,000 cells per well and incubated for 72 h. the intracellular [Ca^2+]i concentration changes were studied using the Fluo-4 NW Calcium Assay Kit (Invitrogen, Sweden), as per the manufacturer’s instructions. Both SH-SY5Y and A7r5 cells were loaded with […] for 45 min. Then, the cells were pre-incubated in the dark for 15 min with the tested compounds at concentrations from […]. The compounds were dissolved in distilled water. Application of carbachol (100 nM) to Fura-4 loaded SH-SY5Y cells was used to stimulate changes in the intracellular [Ca^2+]i concentration, whereas A7r5 cells were treated with 1.5 mM CaCl2 and KCl (50 mM) for 5 min to induce an increase in the [Ca^2+] ion concentration. The intracellular [Ca^2+] ion concentration was measured using the fluorescence spectrophotometer’s (Thermo Ascient, Hyderabad) settings appropriate for an excitation at 494 nm and an emission at 516 nm. Amlodipine was used as the positive control. IC50 values as mean ± SD were calculated using Graph Pad Prism 5.0 software.

[2] = tested on: SH-SY5Y cells (containing L- and N-type Ca2+ channels); test: Intracellular Ca2+ measurement (Fluo-4 NW), carbachol-induced increase; format: cell-based; conditions: Homo sapiens, carbachol 100 nM, mean ± SD, unit printed only in abstract, not in Table 2, read-out: Calcium overload-preventing activity (IC50), SH-SY5Y
Method: as §1, §2

A7r5 cells = test: Cadmium cytotoxicity study (LDH release); format: cell-based, rat; conditions: for fold decrease in cell lethality (ratio of LC50 vs CdCl2 alone): then CdCl2 for 4 h
Method: The A7r5 cell line was obtained from National Center for Cell Sciences, Pune, India. The cells were grown in Dulbecco’s Modified Eagles Medium (DMEM) supplemented with 5% fetal bovine serum at 37 °C in an atmosphere of 90% air/10% CO2. For determinations of cell viability, A7r5 cells were removed from stock flasks by mild digestion with trypsin-EDTA solution and the stock cultures were developed in 25 cm^2 culture flasks and all trials were done in 96 micro titer plates. After plating, the cells were allowed to grow to confluence for 7–10 days before use.
The rat aorta smooth muscle A7r5 cells received one of the four treatments following overnight incubation. The first group received CdCl2 at 1, 10, 20, 30, 40, 50 μM prepared in complete culture for 4 h incubation. The second group received pretreatment with 200 μM AD for 1 h followed by the addition of 1, 10, 20, 30, 40, 50 μM CdCl2 for 4 h incubation. The third group received pretreatment with 200 μM compound 5a for 1 h followed by the addition of 1, 10, 20, 30, 40, 50 μM CdCl2 for 4 h incubation. The fourth group received pretreatment with 200 μM compound 5a for 1 h followed by the addition of 1, 10, 20, 30, 40, 50 μM CdCl2 for 4 h incubation. The CdCl2 different concentrations used in this test were chosen based on preliminary studies to identify concentrations which ranged from producing no effects to cytolethality. A short term exposure (4 h) was chosen to evaluate the effects of metallothionein induction. The cell viability was assessed by measurement of (Lactate Dehydrogenase) LDH released into the medium. LDH release was expressed as a percent of the maximum after lysis of cells with TritonX-100.

[3] = tested on: mitochondrial functioning; test: Effect on mitochondrial functioning; conditions: at concentrations close to those demonstrating L-type calcium channel blocking activity

CCOC(=O)C1=C(COCCN)NC(C)=C(C(=O)OC)C1c1ccccc1Cl (centres unmarked) [Amlodipine, reference compound]
IC50 [1]: 0.45 ± 0.52 µg/mL (≈ 1.1 µM) | IC50 [2]: 11 ± 0.61 µg/mL (≈ 26.9 µM) | loss of cell viability ablated by pretreatment (A7r5 cells; 200 μM for 1 h pretreatment, 20 μM CdCl2): 75% | fold decrease in cell lethality (ratio of LC50 vs CdCl2 alone) (A7r5 cells; 200 μM for 1 h pretreatment): 2.0 fold | effect on LDH leakage (A7r5 cells; 1 h pretreatment with 200 μM, compound alone): did not affect LDH leakage

CCOC(=O)C1=C(COCCNS(=O)(=O)c2ccc(Br)cc2)NC=C(C(=O)OC)C1c1ccccc1Cl (centres unmarked) [5b]
IC50 [1]: 0.52 ± 0.48 µg/mL (≈ 0.847 µM) | IC50 [2]: 20 ± 0.52 µg/mL (≈ 32.6 µM)

CCOC(=O)C1=C(COCCNS(=O)(=O)c2ccc(Cl)c([N+](=O)[O-])c2)NC=C(C(=O)OC)C1c1ccccc1Cl (centres unmarked) [5c]
IC50 [1]: 0.43 ± 0.52 µg/mL (≈ 0.7 µM) | IC50 [2]: 15 ± 0.53 µg/mL (≈ 24.4 µM)

CCOC(=O)C1=C(COCCNS(=O)(=O)c2ccc(F)cc2)NC=C(C(=O)OC)C1c1ccccc1Cl (centres unmarked) [5d]
IC50 [1]: 0.59 ± 0.61 µg/mL (≈ 1.07 µM) | IC50 [2]: 21 ± 0.49 µg/mL (≈ 38 µM)

CCOC(=O)NCCOCC1=C(C(=O)OCC)C(c2ccccc2Cl)C(C(=O)OC)=CN1 (centres unmarked) [3d]
IC50 [1]: 4.25 ± 0.25 µg/mL (≈ 9.1 µM) | IC50 [2]: 14 ± 0.39 µg/mL (≈ 30 µM)

CCOC(=O)C1=C(COCCNS(=O)(=O)C(F)(F)F)NC=C(C(=O)OC)C1c1ccccc1Cl (centres unmarked) [5e]
fold higher activity in A7r5 cells than in SH-SY5Y cells [1]: at least 10 fold | IC50 [1]: 0.25 ± 0.63 µg/mL (≈ 0.474 µM) | IC50 [2]: 10 ± 0.18 µg/mL (≈ 19 µM) | fold decrease in cell lethality (ratio of LC50 vs CdCl2 alone) (A7r5 cells; 200 μM for 1 h pretreatment): 2.3 fold | effect on mitochondrial functioning [3]: did not affect mitochondrial functioning

CCOC(=O)C1=C(COCCNC(=O)OCC(C)C)NC=C(C(=O)OC)C1c1ccccc1Cl (centres unmarked) [3e]
IC50 [1]: 8.35 ± 0.52 µg/mL (≈ 16.9 µM) | IC50 [2]: 40 ± 0.43 µg/mL (≈ 80.8 µM)

CCOC(=O)C1=C(COCCNS(=O)(=O)c2ccc([N+](=O)[O-])cc2)NC=C(C(=O)OC)C1c1ccccc1Cl (centres unmarked) [5a]
fold higher activity in A7r5 cells than in SH-SY5Y cells [1]: at least 10 fold | IC50 [1]: 0.18 ± 0.02 µg/mL (≈ 0.31 µM) | IC50 [2]: 8 ± 0.23 µg/mL (≈ 13.8 µM) | fold decrease in cell lethality (ratio of LC50 vs CdCl2 alone) (A7r5 cells; 200 μM for 1 h pretreatment): 2.5 fold | effect on mitochondrial functioning [3]: did not affect mitochondrial functioning

[Cl][Cd][Cl] [CdCl2]
CC50 (A7r5 cells; 4 h exposure, CdCl2 alone, read-out: LC50 (CdCl2 induced cell death)): 30.2 ± 0.82 µM
